Source: ChEMBL document CHEMBL1240510, “Synthesis, stereochemical separation, and biological evaluation of selective inhibitors of human MAO-B: 1-(4-arylthiazol-2-yl)-2-(3-methylcyclohexylidene)hydrazines” (J Med Chem, 2010)

Biological target: T1, Amine oxidase [flavin-containing] A (Homo sapiens, UniProt P21397)
T1 sequence (P21397 whole entry): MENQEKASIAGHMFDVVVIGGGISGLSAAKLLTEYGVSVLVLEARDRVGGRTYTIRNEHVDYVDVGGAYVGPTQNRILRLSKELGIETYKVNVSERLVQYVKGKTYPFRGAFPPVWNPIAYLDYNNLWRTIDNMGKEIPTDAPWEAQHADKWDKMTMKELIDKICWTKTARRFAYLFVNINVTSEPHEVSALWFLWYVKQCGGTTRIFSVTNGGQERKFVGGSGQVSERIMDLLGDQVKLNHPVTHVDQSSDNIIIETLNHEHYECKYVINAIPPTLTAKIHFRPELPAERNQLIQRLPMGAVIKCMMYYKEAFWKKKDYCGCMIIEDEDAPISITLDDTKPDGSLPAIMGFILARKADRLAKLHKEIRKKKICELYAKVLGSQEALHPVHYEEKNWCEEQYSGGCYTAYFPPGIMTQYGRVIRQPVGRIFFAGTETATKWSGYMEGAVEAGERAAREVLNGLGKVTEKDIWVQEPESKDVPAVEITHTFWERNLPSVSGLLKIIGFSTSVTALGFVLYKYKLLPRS
Assay: biochemical
Assay type: cell-based, BTI-TN-5B1-4

Structure (SMILES)	IC50
CC1CCC/C(=N/Nc2nc(-c3ccc(Cl)cc3Cl)cs2)C1 (centres undefined)	43.8 µM
CC1CCC/C(=N/Nc2nc(-c3ccccc3)cs2)C1 (centres undefined)	37.8 µM
C[C@@H]1CCC/C(=N/Nc2nc(-c3ccccc3)cs2)C1	38.6 µM
C[C@@H]1CCC/C(=N/Nc2nc(-c3ccc(Cl)cc3Cl)cs2)C1	40.6 µM

Second part, the compound after the results:

IC50	Structure (SMILES)
21.9 µM	C[C@@H]1CCC/C(=N/Nc2nc(-c3ccc(C#N)cc3)cs2)C1
23.1 µM	CC1CCC/C(=N/Nc2nc(-c3ccc(Cl)cc3)cs2)C1 (centres undefined)
22.8 µM	C[C@@H]1CCC/C(=N/Nc2nc(-c3ccc(Cl)cc3)cs2)C1
20.6 µM	CC1CCC/C(=N/Nc2nc(-c3ccc(C#N)cc3)cs2)C1 (centres undefined)
4.26 µM	COc1ccc(-c2csc(N/N=C3/CCC[C@@H](C)C3)n2)cc1
